Values after ≈ are worked out from the molar mass of the structure shown. One block for each molecule: values may come before it.
Tests used:
[1] = tested on: Pseudomonas aeruginosa; details: mixed-species biofilms grown 22 hours, 20 hours of treatment
Experimental: (§1) Several CSA compounds were tested against Pseudomonas aeruginosa and Staphylococcus aureus mixed-species biofilms grown for an initial 22 hours and subjected to 20 hours of treatment.

[2] = tested on: Staphylococcus aureus; details: mixed-species biofilms grown 22 hours, 20 hours of treatment
Experimental: as §1

[3] = tested on: Pseudomonas aeruginosa (PA01); experiment: Coated endotracheal tube segments, daily re-inoculation, growth in medium; type: cell-based; parameters: key to bacterial growth in medium, Day 1 / bacterial growth in medium, Day 2 / bacterial growth in medium, Day 3 / bacterial growth in medium, Day 4 / bacterial growth in medium, Day 5 / bacterial growth in medium, Day 6 / bacterial growth in medium, Day 7 / bacterial growth in medium, Day 10 / bacterial growth in medium, Day 8 / bacterial growth in medium, Day 9: N=no growth; G=growth; details: hydrogel coating 10% CSA-131 HCl, 3% citric acid, PA01 re-inoculated every 24 h
Experimental: A hydrogel coating containing 10% CSA-131 HCl and 3% citric acid, relative to the hydrogel solids, was tested for antibacterial efficacy using endotracheal tube segments (5.0 mm). These tube segments (surface area of ca. 1.5 cm^2) were dip coated and cured to give coatings of approximately 10 microns. Coated tube segments were washed in phosphate buffered saline (PBS) for varied amounts of time before testing. Antibacterial testing involved immersing tube segments in 10% TSB in PBS (1.0 mL) and inoculating with Pseudomonas aeruginosa (PA01)@10^6 colony forming units (CFU). Samples were incubated for 24 h, and bacterial growth in the medium was assayed visually (i.e., turbidity in the medium is caused by unrestricted bacterial growth). […] And the converse is true: if growth is supported in the medium that the device is colonized, to some extent.
After 24 h of incubation, tube segments were immersed in fresh growth media (10% TSB in PBS, 1 mL), re-inoculated, and incubated. […] Experiments were performed in triplicate. N=no growth, G=growth.
Antibacterial activity of a hydrogel coating (ca. 10 microns) containing CSA-131 2-NDSA (10% by weight relative to hydrogel solids) was determined as described in Example 8 using methicillin-resistant Staphylococcus aureus (MRSA) and Pseudomonas aeruginosa (PA01).

[4] = Hydrogel coating stability and reaction with ethylene oxide (ETO)
Experimental: Releases of CSA-131 from hydrogel-based coatings were investigated, including examining coating stability and reaction of the coating with ethylene oxide (ETO) during sterilization processes. […] To mask this reactivity, coatings were prepared including varies percentages of citric acid to form non-volatile salts of the CSA compound.
Using a jet mill (Fluid Energy), CSA-131 2-NDSA was milled to an average particle size of 200 nm.

MIC P. aeruginosa [1]: 3.125 µg/mL
MIC S. aureus [2]: 3.125 µg/mL
SMILES: CCCCCCOC(=O)CCC(C)C1CCC2C3C(OC(=O)CCN)CC4CC(OC(=O)CCN)CCC4(C)C3CC(OC(=O)CCN)C12C.Cl.Cl.Cl (stereo not drawn) [CSA-142]
MBC P. aeruginosa [1]: 3.125 µg/mL
MBC S. aureus [2]: 3.125 µg/mL

MIC P. aeruginosa [1]: 6.25 µg/mL (≈ 8.86 µM)
MIC S. aureus [2]: 1.56 µg/mL (≈ 2.21 µM)
SMILES: CCCCCN(CCCCC)CCC[C@@H](C)[C@H]1CC[C@H]2[C@@H]3[C@H](OCCCN)C[C@@H]4C[C@H](OCCCN)CC[C@]4(C)[C@H]3C[C@H](OCCCN)[C@]12C [CSA-90]
MBC P. aeruginosa [1]: 6.25 µg/mL (≈ 8.86 µM)
MBC S. aureus [2]: 1.56 µg/mL (≈ 2.21 µM)

MIC P. aeruginosa [1]: 3.125 µg/mL (≈ 4.62 µM)
MIC S. aureus [2]: 0.78 µg/mL (≈ 1.15 µM)
SMILES: CCCCCCCCNCCC[C@@H](C)[C@H]1CC[C@H]2[C@@H]3[C@H](OCCCN)C[C@@H]4C[C@H](OCCCN)CC[C@]4(C)[C@H]3C[C@H](OCCCN)[C@]12C [CSA-13]
MBC P. aeruginosa [1]: 6.25 µg/mL (≈ 9.23 µM)
MBC S. aureus [2]: 0.78 µg/mL (≈ 1.15 µM)

MIC P. aeruginosa [1]: 50 µg/mL
MIC S. aureus [2]: 6.25 µg/mL
SMILES: C[C@H](CCCNCCCNCCCN)[C@H]1CC[C@H]2[C@@H]3[C@H](OCCCN)C[C@@H]4C[C@H](OCCCN)CC[C@]4(C)[C@H]3C[C@H](OCCCN)[C@]12C.Cl.Cl.Cl.Cl.Cl.Cl [CSA-54]
MBC P. aeruginosa [1]: 100 µg/mL
MBC S. aureus [2]: 25 µg/mL

MIC P. aeruginosa [1]: >200 µg/mL
MIC S. aureus [2]: 50 µg/mL
SMILES: CC(O)C1CCC2C3C(OCCCN)CC4CC(OCCCN)CCC4(C)C3CC(OCCCN)C12C.Cl.Cl.Cl (mixture of isomers) [CSA-11]
MBC P. aeruginosa [1]: >200 µg/mL
MBC S. aureus [2]: 50 µg/mL

MIC P. aeruginosa [1]: 12.5 µg/mL
MIC S. aureus [2]: 3.125 µg/mL
SMILES: CCCCCCCCCOC(=O)CCC(C)C1CCC2C3C(OC(=O)CCN)CC4CC(OC(=O)CCN)CCC4(C)C3CC(OC(=O)CCN)C12C.Cl.Cl.Cl (stereo not drawn) [CSA-145]
MBC P. aeruginosa [1]: 50 µg/mL
MBC S. aureus [2]: 3.125 µg/mL

SMILES: CC[C@H](C)[C@H](NC(=O)[C@H](CCCCN)NC(=O)[C@H](CCC(=O)O)NC(=O)[C@H](CCCCN)NC(=O)[C@H](CO)NC(=O)[C@H](CCCCN)NC(=O)[C@H](CCCNC(=N)N)NC(=O)[C@H](Cc1ccccc1)NC(=O)[C@H](Cc1ccccc1)NC(=O)[C@H](CC(=O)O)NC(=O)CNC(=O)[C@H](CC(C)C)NC(=O)[C@@H](N)CC(C)C)C(=O)NCC(=O)N[C@@H](CCCCN)C(=O)N[C@@H](CCC(=O)O)C(=O)N[C@@H](Cc1ccccc1)C(=O)N[C@@H](CCCCN)C(=O)N[C@@H](CCCNC(=N)N)C(=O)N[C@H](C(=O)N[C@H](C(=O)N[C@@H](CCC(N)=O)C(=O)N[C@@H](CCCNC(=N)N)C(=O)N[C@H](C(=O)N[C@@H](CCCCN)C(=O)N[C@@H](CC(=O)O)C(=O)N[C@@H](Cc1ccccc1)C(=O)N[C@@H](CC(C)C)C(=O)N[C@@H](CCCNC(=N)N)C(=O)N[C@@H](CC(N)=O)C(=O)N[C@@H](CC(C)C)C(=O)N[C@H](C(=O)N1CCC[C@H]1C(=O)N[C@@H](CCCNC(=N)N)C(=O)N[C@H](C(=O)N[C@@H](CCC(=O)O)C(=O)N[C@@H](CO)C(=O)O)[C@@H](C)O)C(C)C)[C@@H](C)CC)C(C)C)[C@@H](C)CC [LL-37, reference compound]
MBC P. aeruginosa [1]: >200 µg/mL
MIC P. aeruginosa [1]: >200 µg/mL
MBC S. aureus [2]: >200 µg/mL
MIC S. aureus [2]: >200 µg/mL

MIC P. aeruginosa [1]: 3.125 µg/mL (≈ 4.26 µM)
MIC S. aureus [2]: 1.56 µg/mL (≈ 2.13 µM)
SMILES: CCCCCCCCOC(=O)CC[C@@H](C)[C@H]1CC[C@H]2[C@@H]3[C@H](OC(=O)CCN)C[C@@H]4C[C@H](OC(=O)CCN)CC[C@]4(C)[C@H]3C[C@H](OC(=O)CCN)[C@]12C [CSA-44]
MBC P. aeruginosa [1]: 6.25 µg/mL (≈ 8.51 µM)
MBC S. aureus [2]: 3.25 µg/mL (≈ 4.43 µM)

MIC P. aeruginosa [1]: 25 µg/mL
MIC S. aureus [2]: 1.56 µg/mL
SMILES: CC(CCCOCCCN)C1CCC2C3C(OCCCN)CC4CC(OCCCN)CCC4(C)C3CC(OCCCN)C12C.Cl.Cl.Cl.Cl (stereo not drawn) [CSA-25]
MBC P. aeruginosa [1]: 50 µg/mL
MBC S. aureus [2]: 3.25 µg/mL

MIC P. aeruginosa [1]: 12.5 µg/mL
MIC S. aureus [2]: 3.125 µg/mL
SMILES: CCCCCCCCCCOC(=O)CCC(C)C1CCC2C3C(OC(=O)CCN)CC4CC(OC(=O)CCN)CCC4(C)C3CC(OC(=O)CCN)C12C.Cl.Cl.Cl (stereo not drawn) [CSA-144]
MBC P. aeruginosa [1]: 50 µg/mL
MBC S. aureus [2]: 3.125 µg/mL

SMILES: CCCCCCCCCCCCNCCC[C@@H](C)[C@H]1CC[C@H]2[C@@H]3[C@H](OCCCN)C[C@@H]4C[C@H](OCCCN)CC[C@]4(C)[C@H]3C[C@H](OCCCN)[C@]12C.Cl.Cl.Cl.Cl [CSA-131 HCl]
bacterial growth in medium, Day 1 ([3]; Unwashed): N
bacterial growth in medium, Day 2 ([3]; Unwashed): N
bacterial growth in medium, Day 3 ([3]; Unwashed): N
bacterial growth in medium, Day 4 ([3]; Unwashed): N
bacterial growth in medium, Day 5 ([3]; Unwashed): G
bacterial growth in medium, Day 6 ([3]; Unwashed): G
bacterial growth in medium, Day 7 ([3]; Unwashed): G
bacterial growth in medium, Day 1 ([3]; Wash Time 15 min in PBS): N
bacterial growth in medium, Day 2 ([3]; Wash Time 15 min in PBS): N
bacterial growth in medium, Day 3 ([3]; Wash Time 15 min in PBS): N
bacterial growth in medium, Day 4 ([3]; Wash Time 15 min in PBS): N
bacterial growth in medium, Day 5 ([3]; Wash Time 15 min in PBS): G
bacterial growth in medium, Day 6 ([3]; Wash Time 15 min in PBS): G
bacterial growth in medium, Day 7 ([3]; Wash Time 15 min in PBS): G
bacterial growth in medium, Day 1 ([3]; Wash Time 30 min in PBS): N
bacterial growth in medium, Day 2 ([3]; Wash Time 30 min in PBS): N
bacterial growth in medium, Day 3 ([3]; Wash Time 30 min in PBS): N
bacterial growth in medium, Day 4 ([3]; Wash Time 30 min in PBS): N
bacterial growth in medium, Day 5 ([3]; Wash Time 30 min in PBS): G
bacterial growth in medium, Day 6 ([3]; Wash Time 30 min in PBS): G
bacterial growth in medium, Day 7 ([3]; Wash Time 30 min in PBS): G
bacterial growth in medium, Day 1 ([3]; Wash Time 1 hour in PBS): N
bacterial growth in medium, Day 2 ([3]; Wash Time 1 hour in PBS): N
bacterial growth in medium, Day 3 ([3]; Wash Time 1 hour in PBS): N
bacterial growth in medium, Day 4 ([3]; Wash Time 1 hour in PBS): N
bacterial growth in medium, Day 5 ([3]; Wash Time 1 hour in PBS): G
bacterial growth in medium, Day 6 ([3]; Wash Time 1 hour in PBS): G
bacterial growth in medium, Day 7 ([3]; Wash Time 1 hour in PBS): G
mechanical integrity of coating on silicone tube segments ([4]; CSA-131 HCl 10% relative to coating solids, prolonged soaking in buffer): some flaking of the coating
ETO adduct formation ([4]; hydrogel coating with at least 3% (by weight relative to hydrogel solids) citric acid): eliminated
reaction with ETO during sterilization ([4]; tube segments coated with hydrogel containing CSA-131 HCl (10%)): substantial reaction, leading to ETO adducts

MIC P. aeruginosa [1]: 3.125 µg/mL
MIC S. aureus [2]: 0.78 µg/mL
SMILES: CCCCCCCCNC(=O)CCC(C)C1CCC2C3C(OCCCN)CC4CC(OCCCN)CCC4(C)C3CC(OCCCN)C12C.Cl.Cl.Cl (stereo not drawn) [CSA-192]
MBC P. aeruginosa [1]: 6.25 µg/mL
MBC S. aureus [2]: 1.56 µg/mL

From patent publication US20180272034A1, “USE OF CSA COMPOUNDS TO PREVENT MICROBIAL BUILD-UP OR FOULING OF MEDICAL IMPLANTS” (BRIGHAM YOUNG UNIVERSITY, priority 2017, published 2018)
